US20250009742A1 (priority 2021, published 2025)

How the values were obtained:
[1] = test system: intracellular HBV DNA; assay: Real-time PCR for intracellular HBV DNA in HepAD38 cells; format: cell-based; conditions: Hepatitis B virus, HePAD38, 65 h, 65 hours treatment
[2] = Cell viability assay (EZ-Cytox), cytotoxicity; format: cell-based; conditions: human, HepAD38 cells; for viability at 65 h, 100 µM: read-out: Cytotoxicity % Livability (@100 μM)
Procedure: HepAD38 cells were cultured for 2 days in Dulbecco's Modified Eagle's medium (Welgene, LM001-05) supplemented with 10% FBS without tetracycline. […] After 65 hours of treatment, viability was measured using EZ-Cytox cell viability assay kit (Daeil Lab Service) according to the manufacturer's instructions. The absorbance was measured at 450 nm using a spectrophotometer (Spark, Tecan).

Structure (SMILES)	IC50 [1] [nM]	CC50 at 65 h [2] [nM]	viability at 65 h, 100 µM [2] [%]
COc1ncc(N(Cc2cc(C(F)(F)F)[nH]n2)C(=O)Nc2cc(F)c(F)c(F)c2)cn1 [Example 219, 1-(2-methoxypyrimidin-5-yl)-1-((5-(trifluoromethyl)-1H-pyrazol-3-yl)methyl)-3-(3,4,5-trifluorophenyl)urea]	12	> 100000	53.7
COc1ncc(N(Cc2n[nH]c(C(F)F)c2C(C)(C)O)C(=O)Nc2ccc(F)c(C(F)F)c2)cn1 [Example 198, 1-((5-(difluoromethyl)-4-(2-hydroxypropan-2-yl)-1H-pyrazol-3-yl)methyl)-3-(3-(difluoromethyl)-4-fluorophenyl)-1-(2-methoxypyrimidin-5-yl)urea]	> 1100	> 100000	102
COc1ncc(N(Cc2cc(C(F)F)[nH]n2)C(=O)Nc2ccc(F)c(C(F)F)n2)cn1 [Example 196, 1-((5-(difluoromethyl)-1H-pyrazol-3-yl)methyl)-3-(6-(difluoromethyl)-5-fluoropyridin-2-yl)-1-(2-methoxypyrimidin-5-yl)urea]	160	76400	29.2
COc1ncc(N(Cc2cc(C(F)(F)F)[nH]n2)C(=O)Nc2ccc(C#N)c(Cl)c2)cn1 [Example 7, 3-(3-chloro-4-cyanophenyl)-1-(2-methoxypyrimidin-5-yl)-1-((5-(trifluoromethyl)-1H-pyrazol-3-yl)methyl)urea]	19	> 100000	59.3
COc1ncc(N(Cc2cc(C(F)(F)F)[nH]n2)C(=O)Nc2cc(N(C)C)c(F)c(C#N)n2)cn1 [Example 164, 3-(6-cyano-4-(dimethylamino)-5-fluoropyridin-2-yl)-1-(2-methoxypyrimidin-5-yl)-1-((5-(trifluoromethyl)-1H-pyrazol-3-yl)methyl)urea]	> 1100	> 100000	100
COc1ncc(N(Cc2n[nH]c(C(F)(F)F)c2Br)C(=O)Nc2ccc(F)c(C(F)F)c2)cn1 [Example 194, 1-((4-bromo-5-(trifluoromethyl)-1H-pyrazol-3-yl)methyl)-3-(3-(difluoromethyl)-4-fluorophenyl)-1-(2-methoxypyrimidin-5-yl)urea]	21	> 100000	–
COc1ncc(N(Cc2cc(C(F)(F)F)[nH]n2)C(=O)Nc2cc(Cl)c(F)cn2)cn1 [Example 89, 3-(4-chloro-5-fluoropyridin-2-yl)-1-(2-methoxypyrimidin-5-yl)-1-((5-(trifluoromethyl)-1H-pyrazol-3-yl)methyl)urea]	50	> 100000	96
COc1ncc(N(Cc2cc(C(F)(F)F)[nH]n2)C(=O)Nc2cc(N(C)C)c(F)c(Cl)n2)cn1 [Example 138, 3-(6-chloro-4-(dimethylamino)-5-fluoropyridin-2-yl)-1-(2-methoxypyrimidin-5-yl)-1-((5-(trifluoromethyl)-1H-pyrazol-3-yl)methyl)urea]	> 1100	> 100000	71.9
CC(C)(O)c1cc(N(Cc2n[nH]c3c2CCCO3)C(=O)Nc2ccc(F)c(Cl)c2)ccn1 [Example 113, 3-(3-chloro-4-fluorophenyl)-1-(2-(2-hydroxypropan-2-yl)pyridin-4-yl)-1-((1,4,5,6-tetrahydropyrano[2,3-c]pyrazol-3-yl)methyl)urea]	> 1100	> 100000	102
COc1ncc(N(Cc2cc(C(F)F)[nH]n2)C(=O)Nc2cccc(C(F)F)c2)cn1 [Example 178, 1-((5-(difluoromethyl)-1H-pyrazol-3-yl)methyl)-3-(3-(difluoromethyl)phenyl)-1-(2-methoxypyrimidin-5-yl)urea]	22	> 100000	68.5
